Laboratory results taken from ChEMBL document CHEMBL1122227, “Synthesis and antiarrhythmic and parasympatholytic properties of substituted phenols. 1. Heteroarylamine derivatives” (1983).
Active and inactive are the calls of the source. The calls are words filed in the database; no cut-off is given here.

Key:
[1] = target: Muscarinic acetylcholine receptor (Rattus norvegicus) (UniProt P08482+P08483+P08485+P08911+P10980); experiment: Percentage inhibition of field stimulated contraction guinea pig ileum (parasympatholytic activity)in presence of test compound (4 mg/L); format: functional, tissue-based; details: Cavia porcellus, target entry is the homologue from another species
[2] = organism: Canis familiaris; experiment: Active dose for antiarrhythmic activity in Harris dog.; format: functional, Canis lupus familiaris, Heart
[3] = tested on: Canis familiaris; experiment: Active dose for antiarrhythmic activity in Harris dog. (incomplete or no effect to restore sinus rhythm up to 30 mg/kg); low activity; format: functional, organism-based; design: dose 30 mg/kg; details: Canis lupus familiaris; Heart
[4] = tested on: Canis familiaris; experiment: Active dose for antiarrhythmic activity in Harris dog; inactive to 22 mg/kg; format: functional, organism-based; design: dose 22 mg/kg; details: Canis lupus familiaris; Heart
[5] = tested on: Canis familiaris; experiment: Active dose for antiarrhythmic activity in Harris dog. (incomplete restoration of normal sinus rhythm up to 2 mg/kg when death occurred); low activity; format: functional, organism-based; design: dose 2 mg/kg; details: Canis lupus familiaris; Heart
[6] = tested on: Canis familiaris; experiment: Active dose for antiarrhythmic activity in Harris dog.(partial restoration of normal sinus rhythm up to 12 mg/kg when loss of muscle tone occurred); low activity; format: functional, organism-based; design: dose 12 mg/kg; details: Canis lupus familiaris
[7] = tested on: Canis familiaris; experiment: Active dose for antiarrhythmic activity in Harris dog; inactive to 30 mg/kg; format: functional, organism-based; design: dose 30 mg/kg; details: Canis lupus familiaris; Heart
[8] = tested on: Canis familiaris; experiment: Active dose for antiarrhythmic activity in Harris dog.(partial restoration of normal sinus rhythm up to 9 mg/kg when death occurred); low activity; format: functional, organism-based; design: dose 9 mg/kg; details: Canis lupus familiaris; Heart

inhibition [1] | Structure (SMILES) | Dose [2] | other results
50% | Oc1c(CN2CCCC2)cc(Nc2ccc3ccccc3n2)cc1CN1CCCC1 | 6 mg/kg | 
76% | Oc1c(CN2CCCC2)cc(Nc2nnc(Cl)c3ccccc23)cc1CN1CCCC1 | 2.5 mg/kg | 
72% | Oc1ccc(Nc2ccc3ccccc3n2)cc1CN1CCCC1 | 11 mg/kg | 
14% | COc1cc2c(Nc3cc(CN4CCCC4)c(O)c(CN4CCCC4)c3)ncnc2c(OC)c1OC |  | DOSE [3]: Partially active
21% | Oc1c(CN2CCCC2)ccc(Nc2ncnc3ccccc23)c1CN1CCCC1 |  | DOSE [4]: inactive
84% | COc1nnc(Nc2cc(CN3CCCC3)c(O)c(CN3CCCC3)c2)c2ccccc12 |  | DOSE [5]: Partially active
27% | Oc1c(CN2CCCC2)cc(Nc2ccnc3cc(Cl)ccc23)cc1CN1CCCC1 |  | DOSE [6]: Partially active
23% | Oc1ccc(Nc2nncc3ccccc23)cc1 |  | DOSE [7]: inactive
3% | Nc1cc(CN2CCCC2)c(O)c(CN2CCCC2)c1 |  | DOSE [7]: inactive
65% | Oc1ccc(Nc2nnc(Cl)c3ccccc23)cc1CN1CCCC1 | 17 mg/kg | 
43% | Oc1c(CN2CCCC2)cc(Nc2ncnc3ccccc23)cc1CN1CCCC1 [CHANGROLIN] | 10.3 mg/kg | 
36% | Oc1c(CN2CCCC2)cc(Nc2ccnc3cc(C(F)(F)F)ccc23)cc1CN1CCCC1 | 3 mg/kg | 
14% | CN(C)Cc1cc(Nc2nncc3ccccc23)cc(CN(C)C)c1O | 14 mg/kg | 
48% | Oc1c(CN2CCCC2)cc(Nc2nccc3ccccc23)cc1CN1CCCC1 | 1.1 mg/kg | 
83% | Oc1c(CN2CCCC2)cc(Nc2nncc3ccccc23)cc1CN1CCCC1 | 1.5 mg/kg | 
19% | Oc1c(CN2CCCC2)cc(Nc2ccnc3ccccc23)cc1CN1CCCC1 |  | DOSE [8]: Partially active
6% | Oc1c(CN2CCCC2)cc(Nc2ncccn2)cc1CN1CCCC1 |  | DOSE [6]: Partially active
78% | Oc1c(CN2CCCC2)cc(CNc2nnc(Cl)c3ccccc23)cc1CN1CCCC1 | 4.5 mg/kg | 
 | CC(=O)Nc1cc(CN2CCCC2)c(O)c(CN2CCCC2)c1 |  | DOSE [7]: inactive
93% | Clc1nnc(Nc2cc(CN3CCCC3)cc(CN3CCCC3)c2)c2ccccc12 | 3 mg/kg | 
13% | Oc1ccc(Nc2ncnc3ccccc23)cc1 |  | DOSE [7]: inactive
 | Cc1cc(Nc2cc(CN3CCCC3)c(O)c(CN3CCCC3)c2)c2ccccc2n1 | 11 mg/kg | 
48% | Oc1ccccc1Nc1ncnc2ccccc12 |  | DOSE [7]: inactive
5% | Oc1c(CN2CCCC2)cc(Nc2ccncc2)cc1CN1CCCC1 | 8.5 mg/kg | 
40% | Oc1c(CN2CCCC2)cc(Nc2ccc(Cl)nn2)cc1CN1CCCC1 | 10.5 mg/kg | 
